Laboratory results: the supplement of paper PMC10307832

Legend:
Assay in all cases: relative viability (nuclei count vs DMSO), 5 days (fraction); higher = more cells survive
[1] = compound: C=CCNC1=C2C[C@@H](C)C[C@H](OC)[C@H](O)[C@@H](C)/C=C(\C)[C@H](OC(N)=O)[C@@H](OC)/C=C\C=C(/C)C(=O)NC(=CC1=O)C2=O [17-AAG] + NC(=O)Nc1cc(-c2cccc(F)c2)sc1C(=O)N[C@H]1CCCNC1 [AZD7762] (partner 0.2 µM)
Summary of the method: (§1)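 Five library-drug doses in √10 steps were combined with a fixed anchor-drug dose, or a single drug was given alone, by pin tool to lung cancer cell lines in 1536-well plates the day after seeding. Nuclei were stained and counted after 5 days. Relative viability is the nuclei count in treated wells over that in vehicle wells, taken as the median of duplicate plates.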

[2] = compound: C=CCNC1=C2C[C@@H](C)C[C@H](OC)[C@H](O)[C@@H](C)/C=C(\C)[C@H](OC(N)=O)[C@@H](OC)/C=C\C=C(/C)C(=O)NC(=CC1=O)C2=O [17-AAG] + Cc1nc(NC(=O)N2CCC[C@H]2C(N)=O)sc1-c1ccnc(C(C)(C)C(F)(F)F)c1 [Alpelisib] (partner 2 µM)
Summary of the method: as §1

[3] = compound: C=CCNC1=C2C[C@@H](C)C[C@H](OC)[C@H](O)[C@@H](C)/C=C(\C)[C@H](OC(N)=O)[C@@H](OC)/C=C\C=C(/C)C(=O)NC(=CC1=O)C2=O [17-AAG] + N=C(N)NC(=N)NCCc1ccccc1 [Phenformin] (partner 250 µM)
Summary of the method: as §1

[4] = compound: C=CCNC1=C2C[C@@H](C)C[C@H](OC)[C@H](O)[C@@H](C)/C=C(\C)[C@H](OC(N)=O)[C@@H](OC)/C=C\C=C(/C)C(=O)NC(=CC1=O)C2=O [17-AAG] + CS(=O)(=O)N1CCN(Cc2cc3nc(-c4cccc5[nH]ncc45)nc(N4CCOCC4)c3s2)CC1 [Pictilisib] (partner 1 µM)
Summary of the method: as §1

Cell Line | relative viability ([1]; first compound 0.00128 µM) | relative viability ([1]; first compound 0.004048 µM) | relative viability ([1]; first compound 0.0128 µM) | relative viability ([1]; first compound 0.04048 µM) | relative viability ([1]; first compound 0.128 µM) | relative viability ([2]; first compound 0.00128 µM) | relative viability ([2]; first compound 0.0128 µM) | relative viability ([2]; first compound 0.04048 µM) | relative viability ([2]; first compound 0.128 µM) | relative viability ([3]; first compound 0.00128 µM) | relative viability ([3]; first compound 0.004048 µM) | relative viability ([3]; first compound 0.0128 µM) | relative viability ([3]; first compound 0.04048 µM) | relative viability ([3]; first compound 0.128 µM) | relative viability ([4]; first compound 0.00128 µM) | relative viability ([4]; first compound 0.0128 µM) | relative viability ([4]; first compound 0.04048 µM) | relative viability ([4]; first compound 0.128 µM) | relative viability ([2]; first compound 0.004048 µM) | relative viability ([4]; first compound 0.004048 µM)
HCC-78 | 0.599 | 0.821 | 0.666 | 0.155 | 0.352 | 0.418 | 0.446 | 0.326 | 0.294 | 0.644 | 0.818 | 0.676 | 0.553 | 0.351 | 0.238 | 0.333 | 0.24 | 0.212 |  | 
HCC-366 | 0.281 | 0.402 | 0.045 | 0.0325 | 0.0323 | 0.565 | 0.0236 | 0.0226 | 0.0154 | 0.653 | 0.591 | 0.159 | 0.0455 | 0.0292 | 0.16 | 0.0477 | 0.0368 | 0.0284 | 0.333 | 0.0822
HCC-827 | 0.216 | 0.238 | 0.163 |  | 0.164 | 1.03 | 0.997 |  | 0.899 | 0.368 | 0.447 | 0.363 |  | 0.251 | 1.21 | 0.923 |  | 1.02 | 1.05 | 1.03
HOP-62 | 0.733 | 0.416 | 0.256 | 0.11 | 0.0928 | 0.907 | 1.1 | 0.939 | 0.38 | 0.711 | 0.541 | 0.404 | 0.305 | 0.118 | 0.811 | 0.748 | 0.11 | 0.0928 | 1.04 | 0.807
LC-2-ad | 0.841 | 0.835 | 0.714 | 0.297 | 0.161 | 0.955 | 0.747 | 0.167 | 0.0846 | 0.476 | 0.523 | 0.273 | 0.258 | 0.227 | 0.567 | 0.123 | 0.124 | 0.0943 | 0.863 | 0.617
LCLC-97TM1 | 0.281 | 0.359 | 0.278 | 0.21 | 0.0815 | 0.204 | 0.235 | 0.26 | 0.161 | 0.454 | 0.402 | 0.428 | 0.247 | 0.143 | 0.263 | 0.211 | 0.13 | 0.104 | 0.294 | 0.228
LCLC-103H | 0.756 | 0.755 | 0.742 | 0.834 | 0.835 | 1.05 | 0.998 | 0.996 | 1.11 | 0.351 | 0.345 | 0.3 | 0.346 | 0.325 | 0.58 | 0.669 | 0.73 | 0.712 | 0.974 | 0.583
LK-2 | 0.481 | 0.522 | 0.149 | 0.115 | 0.0799 | 1.13 | 1.28 | 0.217 | 0.233 | 0.462 | 0.478 | 0.194 | 0.158 | 0.135 | 0.725 | 0.6 | 0.208 | 0.175 | 0.998 | 0.659
